# Data as given in patent US20220362153A1, “COMPOSITIONS AND METHODS FOR PULMONARY SURFACTANT-BIOMIMETIC NANOPARTICLES” (priority 2019, published 2022).
# Columns and labels:
# [1] = test system: gap junctions between AMs and AECs; test: Gap junction blockade in vivo; parameters: species or system mice; settings: for effect on PS-GAMP adjuvanticity (IgG2c): i.p. prior to and during immunization
# [2] = test system: GZ89 H3N2 virus; parameters: species or system mice; settings: mouse, in vivo
# [3] = test system: CA09 H1N1 virus
# [4] = test system: immune mediators (Ifnb1, Gmcsf, Tnf, Ccl2, Ccl3, Ccl5, Cxcl10); settings: mouse, in vivo
# [5] = mouse, in vivo
# [6] = test system: CA09 H1N1 vaccine; assay type: in vivo, C57BL/6 mice; settings: 20 μg, 2 weeks
# [7] = test system: SH13 H7N9 virus; parameters: species or system mice; settings: mouse, in vivo
# [8] = i.p. inhibitor, i.n. SRB-nano4, 12 h
compound,measurement,setting,value
"CC1(C)[C@@H](OC(=O)CCC(=O)O)CC[C@]2(C)[C@H]3C(=O)C=C4[C@@H]5C[C@@](C)(C(=O)O)CC[C@]5(C)CC[C@@]4(C)[C@]3(C)CC[C@@H]12 [CBX, carbenoxolone]",SRB uptake by AMs,[1]; [8],did not affect SRB uptake by AMs
same,entry of SRB into AECs,[1]; [8],blocked
same,effect on PS-GAMP adjuvanticity (IgG2c),[1],blunted substantially
same,Ifnb1 transcription in AMs,"[1]; lungs receiving PS-GAMP, 12 h",increasing Ifnb1 transcription in AMs
same,transcription of Ifnb1 and Gmcsf in AECs,"[1]; lungs receiving PS-GAMP, 12 h",greatly diminished
same,reduction of recruitment of CD11b+ DCs,"[1]; vaccine + PS-GAMP, lung, 24 h",50%
CCCCCCCCc1ccc(CCC(N)(CO)CO)cc1 [FTY720],effect on cross-protection elicited by vaccine/PS-GAMP,[2],not compromised
Cc1ccc(Cl)c(Nc2ccccc2C(=O)O)c1Cl [meclofenamate],effect on PS-GAMP adjuvanticity (IgG2c),[1],blunted substantially
CCOC(=O)C1=C[C@@H](OC(CC)CC)[C@H](NC(C)=O)[C@@H](N)C1 [oseltamivir],control of CA09 H1N1 viral infection,"[3]; unimmunized mice, 20 mg/kg/day",effectively control CA09H1N1
CC(=O)c1ccc2c(c1)[C@H](NC(=O)c1ccc(F)c(Cl)c1)[C@H](O)C(C)(C)O2 [tonabersat],effect on PS-GAMP adjuvanticity (IgG2c),[1],blunted substantially
cholera toxin [CT],cytokine production in the brain,[4],measurable cytokine mRNA expression in the brains of some mice
same,"histology of lungs, nasal tissue, and brains",[5],massive inflammatory cell infiltrates in the lung
poly IC,lower efficacy in augmenting BALF IgA (vs PS-GAMP),[6],30 fold
same,lower efficacy in augmenting HAI titers (vs PS-GAMP),[6],fivefold
same,lower efficacy in augmenting serum IgG (vs PS-GAMP),[6],100 fold
same,body weight loss after 10×LD50 CA09 H1N1 challenge,"[3]; mouse, in vivo",severe body weight loss
same,protection against 10×LD50 CA09 H1N1 viral challenge,"[3]; mouse, in vivo",33%
same,heterosubtypic protection from SH13 H7N9 challenge,[7],failed to provoke significant heterosubtypic protection
